As usually defined, the IC50 is the concentration at which inhibition is half-maximal.

Five compounds from paper PMC5402304, “Oxoaporphine Metal Complexes (Co^II, Ni^II, Zn^II) with High Antitumor Activity by Inducing Mitochondria-Mediated Apoptosis and S-phase Arrest in HepG2” (Scientific Reports, 2017) can be followed below.

Common to all, as to assay type: cell-based, human
One experiment has as its system T-24. Put plainly: MTT cytotoxicity assay, T-24. Particulars: for inhibitive ratio: T-24, 20 μmol/L, 48 h; for IC50: T-24, 48 h, MTT. The protocol: (§1) The in vitro cytotoxicity of OD, 1–3 and the corresponding metal salts were determined by MTT assay towards a panel of human tumor cells including HepG2, T-24, BEL-7404, MGC80-3, SK-OV-3/DDP and normal HL-7702 cells. As the positive control, cisplatin was dissolved at a concentration of 1 mM in 0.154 M NaCl[32].
(§2) The human tumor cell lines (BEL-7404, HepG2, MGC80–3, T-24, SK-OV-3/DDP and HeLa cells) and the human normal liver cell line HL-7702 were obtained from Shanghai Cell Bank in Chinese Academy of Sciences. Cells were cultured in Dulbecco’s modified Eagle’s medium (DMEM) or RPMI-1640 medium, which supplemented with 10% fetal bovine serum (FBS) and 100 U/mL penicillin and streptomycin. Cells were cultured at 37 °C in a humidified atmosphere with 5% CO2/95% air. Tested compounds (2.0 mM) were prepared as DMSO stock solution before they were diluted to working concentrations by PBS buffer (containing 0.5% DMSO), while cisplatin dissolved in 0.9% sodium chloride solution was used as positive controls.
(§3) Cells in their logarithmic phase were seeded in 96-well plates with 5.5 × 10^3/180 μL per well for 24 h. Then 20 μL of compounds at various concentrations were added to each well to achieve final concentrations of 1.25, 2.5, 5.0, 10.0, and 20.0 μM. All the cells were incubated with test compounds for another 48 h before MTT assay. Control wells contained media with 0.5% DMSO. After 48 h of cultivation, 10 μL of MTT (5 mg/mL in PBS) was added to each well, and cells were incubated at 37 °C for 6 h. The contents in the wells were pipetted out carefully, and the formazan crystals formed were dissolved in 100 μL of DMSO, and the absorbance was measured by enzyme labeling instrument with 490 nm/630 nm double wavelength measurement. The IC50 value was defined as a drug concentration killing 50% cells in comparison with untreated controls, which was calculated by the Bliss method (n = 5). All tests were repeated in at least three independent trials.
(Formazan colour is commonly taken as a measure of viable cells.)

For the next experiment, the system named is SK-OV-3/DDP. Put plainly: MTT cytotoxicity assay, SK-OV-3/DDP. The following applies: 48 h; for inhibitive ratio: SKOV-3/DDP, 20 μmol/L; for IC50: SK-OV-3/DDP, MTT. As for the experimental part: as §1, §2, §3
A further experiment has as its system MGC80-3. As to the kind of experiment: MTT cytotoxicity assay, MGC80-3. The following applies: for inhibitive ratio: MGC80-3, 20 μmol/L, 48 h; for IC50: MGC80-3, 48 h, MTT. The protocol: as §1, §2, §3
The subject of a further experiment is BEL-7404. As to the kind of experiment: MTT cytotoxicity assay, BEL-7404. The following applies: for inhibitive ratio: BEL-7404, 20 μmol/L, 48 h; for IC50: BEL-7404, 48 h, MTT. As for the experimental part: as §1, §2, §3
The test system of the next experiment is HL-7702. As to the kind of experiment: MTT cytotoxicity assay, normal liver cells HL-7702. Particulars: 48 h; for inhibitive ratio: HL-7702, 20 μmol/L; for IC50: HL-7702 normal liver cells, MTT. The protocol:
as §1, §2, §3

Experiment [1] has as its system HepG2. Put plainly: MTT cytotoxicity assay, HepG2. Particulars: for inhibitive ratio: HepG2, 20 μmol/L, 48 h; for IC50: HepG2, 48 h, MTT. The protocol: as §1, §2, §3
A further experiment deals with HepG2 cells. Put plainly: Comet assay for DNA damage. On the set-up: unit not given here. Particulars: HepG2, 1.0 μM, 24 h. The protocol: After the observation of significant S-phase arrest caused by 1–3, the study of DNA damage assay is necessary. The single cell gel electrophoresis technique (comet assay) is a simple, sensitive, reliable, and rapid method to detect DNA damage in eukaryotic cell[39]. As shown in Table 3 and Fig. 6, 1–3 at 1.0 μM induced DNA damage (fragmentation or unwinding) appeared as fluorescent comets with remarkable increase of tails size, especially for 3.
The comet assay is a simple method for measuring DNA strand breaks in cells. The comet assay reagent kit was purchased from Trevigen, and the experiment was carried out according to the manufacturer’s instructions. After treatment with OD and 1–3 at 1.0 μM, HepG2 cells were harvested and suspended at 1 × 10^6 Hep-G2 cells/mL in PBS. The cells suspension was mixed with melted LM agarose at a ratio of 1:10 (v/v). An aliquot (75 μL) of the mixture was immediately pipetted onto the slide (Comet Slide TM). After refrigeration for 30 min, the slide was immersed in pre-chilled lysis solution and left on ice for 60 min, followed by immersing in freshly prepared alkaline solution (300 mM NaOH, 1 mM EDTA, pH > 13) for 60 min on ice in darkness. After DNA unwinding, the slide was subjected to alkaline solution for electrophoresis in a Savant ps 250 system set at 300 mA and 1 volt/cm for 30 min. After electrophoresis, the slide was rinsed with distilled H2O, fixed in 70% ethanol for 5 min and air-dried overnight. DNA was stained with SYBR Green I (Trevigen) and visualized under a fluorescence microscope (Nikon, Eclipse E600).

The subject of the next experiment is caspase-3. As to the kind of experiment: Caspase-3 activation by flow cytometry (CaspGLOW). Particulars: HepG2, 1.0 μM, 24 h; control 4.2%. As for the experimental part: (§4) Caspase family is closely related to the cell apoptosis via the mitochondrial pathway, especially caspases-3, -8 and -9. To better understand the antitumor mechanisms, it needs to confirm whether caspase-3, -8 and -9 are activated when the tumor cells are treated with 1–3.
(§5) The measurement of caspase-3, -8 and -9’s activities was performed by CaspGLOW fluorescein active caspase-3, -8 and -9 staining kit. HepG2 cells were treated with 1 μM 1–3 for 24 h, harvested at a density of 1 × 10^6 cells/mL, and then suspended in 300 μL volume with PBS. To the suspension, 1 μL of caspase-3 inhibitor (FITC-DEVD-FMK), caspase-8 inhibitor (FITC-IETD-FMK) or caspase-9 inhibitor (FITC-LEHD-FMK) was consequently added and incubated for 1 h at 37 °C in 5% CO2 incubator. The cells were then examined by a FACSAria II flow cytometer equipped with a 488 nm argon laser. The results were represented as the percent change on the activity compared with the control.
A general note: In flow cytometry, cells or beads pass a laser one at a time.

The test system of experiment [2] is HepG2. As to the kind of experiment: Cell apoptosis assay by flow cytometry, Annexin V-FITC/PI. The following applies: HepG2, 5.0 μM, 24 h. As for the experimental part:
The quantitative analysis of apoptotic HepG2 induced by 1–3 (1.0, 2.0 and 5.0 μM) and their corresponding metal salts (5.0 μM) after 24 h treatment, were investigated by flow cytometry and Annexin V-FITC/PI double staining. As depicted in Figs 7 and S6, 1–3 caused a significant increase in apoptotic cells comparing to the untreated cells.
Cell cycle progression and apoptosis were determined by flow cytometric analysis. (a) Cell cycle arrest assay: HepG2 cells in their logarithmic phase were plated into 50 mL plates at a final density of 5−6 × 10^6 cells/well overnight, then they were treated with various doses (0.25, 0.5 and 1.0 μM) of 1–3 for another 24 h. Cells were trypsinized, collected, and fixed in ice-cold 75% ethanol at −20 °C overnight. After centrifugation, the fixed cells were rinsed with ice-cold phosphate buffered saline (PBS), and resuspended in 0.5 mL of PBS containing 100 μg/mL RNase, 50 μg/mL propidium iodide (PI) in the dark for 5−10 min. The cell cycle distribution was analyzed by FACS Calibur flow cytometer (BD) and calculated using ModFIT LT software. (b) Apoptosis assay: 1 × 10^5 HepG2 cells were plated in 6-well plates, after incubation for 24 h with complexes 1–3 at 1.0, 2.0 and 5.0 μM, cells were collected, and Apoptosis Detection kit FITC Annexin V was used to analyze the cell apoptosis according to the manufacturer’s instructions.

Another experiment has as its system caspase-9. As to the kind of experiment: Caspase-9 activation by flow cytometry (CaspGLOW). The following applies: HepG2, 1.0 μM, 24 h; control 1.9%. As for the experimental part:
as §4, §5

Another experiment relates to caspase-8. Put plainly: Caspase-8 activation by flow cytometry (CaspGLOW). The following applies: HepG2, 1.0 μM, 24 h; control 1.8%. As for the experimental part:
as §4, §5

On to `[Co+2].[O-][Cl+3]([O-])([O-])[O-].[O-][Cl+3]([O-])([O-])[O-]` [Co(ClO4)2, reference compound], for which the inhibitive ratio is recorded as 36.23±0.09% in the experiment with T-24; 21.74±0.03% with SK-OV-3/DDP; 24.74±0.03% in the experiment with MGC80-3; 23.29±0.09% in the experiment with BEL-7404; 45.91±0187% in the experiment with HL-7702; 32.87±0.13% in the experiment on HepG2 [1].
Consider `[O-][Cl+3]([O-])([O-])[O-].[O-][Cl+3]([O-])([O-])[O-].[Zn+2]` [Zn(ClO4)2, reference compound], for which the inhibitive ratio is recorded as 28.19±0.13% in the experiment with T-24; 12.33±0.05% in the experiment with SK-OV-3/DDP; 17.63±0.07% in the experiment on MGC80-3; 24.07±0.15% with BEL-7404; 43.18±0.19% in the experiment with HL-7702; 30.94±0.39% with HepG2 [1].
Consider `[Ni+2].[O-][Cl+3]([O-])([O-])[O-].[O-][Cl+3]([O-])([O-])[O-]` [Ni(ClO4)2, reference compound], for which the inhibitive ratio was 37.86±0.19% in the experiment on T-24; 11.25±0.12% in the experiment on SK-OV-3/DDP; 16.35±0.09% in the experiment with MGC80-3; 32.31±0.07% with BEL-7404; 50.14±0.06% with HL-7702; 32.57±0.29% in the experiment with HepG2 [1].
In the experiment with HepG2 cells, [Ni(OD)2(CH3OH)2](ClO4)2 [Complex 2] had a Comet length of 99.56 ± 10.57. Moreover, the Olive tail moment in the experiment with HepG2 cells turned out to be 20.56 ± 7.54. The same compound came in with a Tail length with HepG2 cells of 45.69 ± 8.27. In addition, the Tail moment in the experiment with HepG2 cells was 29.52 ± 8.66. In the experiment on caspase-3, the “proportion of activated caspase-3” value is given as 39.9%. Further, the “population of apoptotic cells” value in the experiment on HepG2 [2] came out at 26.1%. The inhibitive ratio was determined as 82.31±0.60% in the experiment with T-24; 84.44±0.65% in the experiment with SK-OV-3/DDP; 71.86±0.28% in the experiment with MGC80-3; 69.38±0.65% in the experiment on BEL-7404; 72.34±0.22% with HL-7702; 87.68 ±0.92% with HepG2 [1]. The IC50 in the experiment on T-24 was determined as 230 ± 130 nM; with SK-OV-3/DDP, 180 ± 30 nM; with MGC80-3, 2860 ± 290 nM; with BEL-7404, 9660 ± 350 nM; in the experiment on HL-7702, 5350 ± 340 nM; with HepG2 [1] it was 200 ± 90 nM. In addition, the “proportion of activated caspase-9” value in the experiment with caspase-9 was 36.0%. Further, in the experiment with caspase-8, the “proportion of activated caspase-8” value was determined as 36.7%.
Consider [Co(OD)2(H2O)2](ClO4)2 [Complex 1], for which, in the experiment on HepG2 cells, the Comet length is on record as 65.45 ± 6.54. The compound also yielded an Olive tail moment in the experiment on HepG2 cells of 3.67 ± 2.09. The same compound returned a Tail length with HepG2 cells of 8.01 ± 4.98. The same compound yielded a Tail moment in the experiment on HepG2 cells of 4.65 ± 1.34. In addition, in the experiment with caspase-3, the “proportion of activated caspase-3” value came to 45.1%. In addition, the “population of apoptotic cells” value in the experiment on HepG2 [2] is listed as 33.1%. For the same compound, the inhibitive ratio in the experiment on T-24 came out at 85.35±0.73%; in the experiment on SK-OV-3/DDP, 78.17±1.69%; with MGC80-3 it was 61.54±0.33%; in the experiment with BEL-7404 it was 63.96±0.78%; in the experiment with HL-7702 it was 56.73±0.14%; in the experiment on HepG2 [1], 88.34± 1.03%. The IC50 with T-24 is 450 ± 170 nM; in the experiment with SK-OV-3/DDP, 260 ± 30 nM; with MGC80-3, 1380 ± 140 nM; in the experiment on BEL-7404, 8980 ± 150 nM; in the experiment with HL-7702, 8110 ± 550 nM; in the experiment on HepG2 [1] it was 660 ± 110 nM. For the same compound, the “proportion of activated caspase-9” value with caspase-9 came out at 27.7%. Also, the “proportion of activated caspase-8” value with caspase-8 was found to be 35.3%.
